This passage reports RP-LC retention time results from the METLIN SMRT retention time set (Domingo-Almenara et al. 2019).

Each structure is given as a SMILES string.

A short description of the data set: gradient 5% acetonitrile 3 min, to 50% in 2 min, to 85% in 15 min, held 3 min, 100 µL/min. To be noted: column: Zorbax Extend-C18 2.1 x 50 mm; eluents: water / acetonitrile, 0.1% formic acid. The method in brief: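 Over 3 months, pure standards in mixtures of ~100 molecules were run by HPLC coupled to a quadrupole time-of-flight mass spectrometer in positive and negative ionization mode. The column was a Zorbax Extend-C18 (2.1 × 50 mm, 1.8 μm) at 100 μL/min, eluted with water and acetonitrile each holding 0.1% formic acid, with 40 μL dead and 900 μL dwell volumes. Retention time was determined from adduct peaks chosen by software and checked manually.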
`O=S(=O)(NCCc1c[nH]c2ncccc12)c1ccccc1Br` gave an RP-LC retention time of 630 s.
In turn, `Cc1cc(-c2nnc(NC(=O)NCc3ccc(Cl)cc3)o2)c(C)o1` displayed an RP-LC retention time of 853 s.
`COc1ccc(OC)c(CNC(=O)c2nc(N3CCOCC3)c3ccccc3n2)c1` yielded an RP-LC retention time of 686 s.
`COc1ccc(N2CCN(C(=O)c3ccc(=O)n(CCN4CCCC4)c3)CC2)cc1` showed an RP-LC retention time of 586 s.
Regarding `Cc1ccc(CNc2ccc3[nH]c(=O)[nH]c3c2)cc1`, the RP-LC retention time stood at 579 s.
`COc1ccc(-c2cc3n(n2)CCCN(C(=O)c2ccco2)C3)cc1`: the RP-LC retention time came out at 758 s.
Consider `Cc1ccc(NC(=O)C2CCN(S(=O)(=O)c3cc(-c4noc(C5CCC5)n4)cs3)CC2)cc1`, for which the RP-LC retention time was 1020 s.
To `CCOCCCNCc1ccc(-c2ccc(Cl)cc2Cl)o1` belongs 765 s; to `CCN(C(=O)c1cc(OC)cc(OC)c1)c1nc(-c2ccccc2)cs1`, 1260 s; to `O=C(CCc1c(-c2ccccc2)nc2ccccn12)Nc1ccc(Br)cc1`, 725 s.
Turning to `Cc1nn(CC(=O)N2CCCN(C)CC2)c(=O)c2nc(-c3ccccc3)sc12`, the RP-LC retention time was determined as 606 s.
`O=C(NC1CCCCC1)C1CCN(c2nc3ccc(-c4cncnc4)nc3s2)CC1`: the RP-LC retention time came out at 830 s.
For the compound `COc1ccc(Cl)cc1N1CC(c2nc3ccccc3n2CCN2CCOCC2)CC1=O` (stereo unspecified), the RP-LC retention time came out at 617 s.
For the compound `Cc1ccc(-c2nc(NC(=O)c3cncc(Br)c3)sc2C)cc1`, the RP-LC retention time was 1180 s.
Take `O=C(c1ccsc1)N1CCC2(CC1)NCc1ccccc1-n1ccnc12`: the RP-LC retention time turned out to be 588 s.
Regarding `CCCn1cnnc1C1CCCCN1C(=O)NCc1ccc(OC)cc1` (stereo unspecified), the RP-LC retention time amounted to 659 s.
The compound `CS(=O)(=O)N1CCCC1C(=O)N1CCCC1` (stereo unspecified) displayed an RP-LC retention time of 584 s.
Turning to `O=C(NCCCn1ccnc1)C1CC(=O)N(CCc2c[nH]c3ccc(F)cc23)C1` (stereo unspecified), the RP-LC retention time came out at 594 s.
Regarding `COc1ccc2[nH]cc(CCN3CC(C(=O)Nc4ccc5c(c4)CCC5)CC3=O)c2c1` (stereo unspecified), the RP-LC retention time worked out at 841 s.
Take `CCC(C)NC(=O)C1COC2(CCN(C(=O)c3ccc(F)cc3F)CC2)N1C(=O)c1ccccc1` (stereo unspecified): the RP-LC retention time was found to be 744 s.
Compound `O=C(c1cn(-c2cc(-c3nc(C4CC4)no3)ccn2)cn1)N1CCSCC1` came in with an RP-LC retention time of 833 s.
Then `COCCNc1c(-c2ccccc2)nc2sc(C(=O)NCc3cccnc3)c(C)n12`, with 611 s.
`CC(C)Cn1cc(C(=O)O)c(S(=O)(=O)N2CCN(C(C)C)CC2)n1` displayed an RP-LC retention time of 609 s.
`Cc1nn(C(C)C)c(C)c1S(=O)(=O)N1CCN(C(=O)CCc2c[nH]c3ccccc23)CC1` had an RP-LC retention time of 829 s.
The compound `COc1ccc(OCc2ccc(-c3nc(C#N)c(NCCN(C)C)o3)o2)cc1` showed an RP-LC retention time of 676 s.
`O=C(Nc1ccc([N+](=O)[O-])cc1Cl)c1cc(Cl)ccc1O` came in with an RP-LC retention time of 1130 s.
The compound `COCCNC(=O)c1nn(-c2ccc(Cl)cc2)c2c(=O)n(C)cnc12` yielded an RP-LC retention time of 709 s.
Then `CCCCN(C)c1ccc(NC(=O)c2cccs2)cc1C(=O)O`, with 623 s; and `CC(C)NC(=O)CN1C(=O)COc2ccc(C(=O)N3CCc4ccccc4C3)cc21`, with 744 s; and `CCc1noc(-c2ccc(-n3cnc(C(=O)NC(C)c4ccccc4)c3)nc2)n1` (stereo unspecified), with 919 s.
Compound `Cc1ccc(S(=O)(=O)N2CCC(C(=O)NCCc3csc(-c4cccs4)n3)CC2)c(C)c1` showed an RP-LC retention time of 955 s.
The compound `O=C(Nc1ccc(-c2cn3cccnc3n2)cc1)c1cc(Br)ccc1Cl` registered an RP-LC retention time of 707 s.
Then `CCS(=O)(=O)c1ccc(-c2ccc(NC(=O)c3ccc(Br)o3)cc2)nn1`, with 765 s.
To `Cc1cc(=O)n(CC(=O)Nc2ccc(F)cc2C)c(N2CCOCC2)n1` belongs 644 s; to `Cc1ccc(C(=O)N2C[C@@H]3C[C@H](NC(=O)c4cccnc4)[C@H]2C3)cc1F`, 609 s; to `Oc1ccc(Cc2ccccc2Cl)c(O)c1`, 891 s.
To `CC(C)n1nccc1-c1nnc(NC(=O)C(C)(C)Oc2ccc(Cl)cc2)o1` belongs 903 s; to `Cc1ccccc1-c1noc(C2CCCN2C(=O)Nc2cccc(F)c2)n1` (stereo unspecified), 1030 s; to `COc1ccc(Cl)cc1NC(=O)c1c(O)c2cccc3c2n(c1=O)CC3`, 1330 s.
Compound `Cc1oc(-c2cccs2)nc1CSc1ncnc2nc[nH]c12` had an RP-LC retention time of 714 s.
Then `Cc1ccccc1-c1noc(Cn2c(=O)n(Cc3ccccc3Cl)c(=O)c3sccc32)n1`, with 1200 s.
`Cc1noc2ncnc(N3CCC(C(=O)NCCN(C)C)CC3)c12`: the RP-LC retention time was 567 s.
Compound `CCOc1ccccc1C(=O)Nc1cccn2cnnc12` gave an RP-LC retention time of 772 s.
In turn, `Cc1cccc(C)c1NC(=O)CCCSc1nnnn1-c1ccccc1` displayed an RP-LC retention time of 810 s.
`Cc1ccc(Cn2cc(-c3ccncc3)cc2C(=O)NCc2cccs2)cc1` registered an RP-LC retention time of 734 s.
For the compound `CCCSCCCNC(=O)c1cc2n(n1)CCCN(Cc1ccccc1)C2=O`, the RP-LC retention time turned out to be 878 s.
In turn, `CC(=O)N(Cc1ccc(F)cc1)Cc1ccc2c(c1)CN(C(=O)C(C)C)CCO2` showed an RP-LC retention time of 804 s.
For the compound `CCc1c(C(=O)O)nnn1Cc1c(F)cccc1Cl`, the RP-LC retention time turned out to be 742 s.
In the case of `CCN1CCC2(CC1)OC(=O)C(C)=C2C(=O)NCCCc1ccccc1`, the RP-LC retention time stood at 654 s.
Compound `Cc1ccc(-c2cc(C(=O)Nc3ccc4c(c3)CCC(=O)N4)c3ccccc3n2)cc1C` returned an RP-LC retention time of 949 s.
To `Cc1ccc(Nc2c(-c3cccc(O)c3)nc3cnccn23)c(Br)c1` belongs 843 s.
Then `Cc1ccc(NC(=O)C2Oc3ccccc3NC2=O)c(Br)c1` (stereo unspecified), with 852 s.
`CSc1ccc(CNC(=O)CSc2cc(N3CCCCC3)ncn2)cc1` yielded an RP-LC retention time of 767 s.
The compound `COc1cc(-c2nnc(-c3ccc(C)c(S(=O)(=O)N(C)C)c3)o2)cc(OC)c1OC` had an RP-LC retention time of 936 s.
In the case of `O=C(NCCn1cnc2cc(C(=O)N3CCCC3)ccc21)NCc1ccco1`, the RP-LC retention time turned out to be 985 s.
For `Cn1cccc1C(=O)N1CCC2(CC1)NC(=O)N(Cc1ccc(Cl)cc1)C2=O`, the RP-LC retention time came to 817 s.
Compound `CNC(=O)N1CCC(CCc2nc(C3CCOCC3)no2)CC1` came in with an RP-LC retention time of 648 s.
Turning to `COc1cccc(NC(=O)Cn2nc3c(Oc4ccc(Cl)cc4)nccn3c2=O)c1`, the RP-LC retention time was 877 s.
`Cc1cc(NC(=O)C2CCC2)nn1Cc1ccccc1` displayed an RP-LC retention time of 841 s.
The compound `Cn1cnc(S(=O)(=O)N2CC(Oc3ccccc3-c3nc(C4CC4)no3)C2)c1` showed an RP-LC retention time of 794 s.
For the compound `COCCn1c(CCCC(=O)NC2CCCCCC2)nc2cccnc21`, the RP-LC retention time was determined as 667 s.
